The numbers were not newly measured in PMC8828969, “Arylamine N-Acetyltransferase 1 Activity is Regulated by the Protein Acetylation Status” (Frontiers in Pharmacology, 2022), which cites them from elsewhere.

The data set relates to NAT1. Also noted: method as in Butcher et al., 2020. As to conditions: ref Butcher et al., 2020; cited from earlier work.

Consider `NC(=O)c1cccnc1` [nicotinamide], for which the “acetylation of NAT1” value was “enhanced”.
